{"source": "paper PMC10820528", "about": "“New Rare Triterpene Glycosides from Pacific Sun Star, Solaster pacificus, and Their Anticancer Activity” (Marine Drugs, 2023)", "key": {"[1]": {"test_system": "human colorectal carcinoma HCT 116 cells", "test": "Scratch (wound-healing) assay, HCT 116", "type": "cell-based", "conditions": "for suppression of migration of HCT 116 cells: 48 h, compared to control at 48 h; for reduction of migration of HCT 116 cells: 72 h of treatment, compared to control at 72 h", "excerpt": "(§1) Metastasis is the leading cause of cancer mortality. The metastatic cascade is a multistep process in which cancer cells are […], from the primary tumor to distant parts and tissues. Migration and plasticity of cancer cells, as well as the environment such as stromal and endothelial cells, are essential in metastasis. In this study, the migration ability (invasive potential) of colorectal carcinoma HCT 116 cells and breast cancer MDA-MB-231 cells and the anti-invasive effect of compound 2 were determined by the “wound-healing”, or scratch, method.\n(§2) HCT 116 and MDA-MB-231 cells (3 × 10^5 cells/mL) were seeded in 6-well plates and grown to 80% confluence for 24 h. After removing the culture medium, the cells’ monolayer was scraped with a 200 µL sterile pipette tip, to create a straight scratch. Then, the cells were treated with compound 2 at concentrations of 0.6, 1.25, 2.5, and 5 µM and incubated for 24, 48, and 72 h. All experiments were set up in triplicate for each group. For image analysis, the cell migration into the wound area was photographed at the stages of 0, 24, 48, and 72 h through a Motic AE 20 microscope and using the ImageJ v. 1.50i software, bundled with 64-bit Java 1.6.0_24 (NIH, Bethesda, MD, USA). The cell migration distance was estimated by measuring the width of the wound, and was expressed as the percentage of each control (0 h) in relation to the mean of the wound-closure area."}, "[2]": {"test_system": "human colorectal carcinoma HCT 116 cells", "test": "Soft-agar clonogenic assay, HCT 116", "type": "cell-based", "conditions": "14 days", "procedure": "(§3) The soft-agar clonogenic assay was applied in order to assess the effect of compound 2 on the colony formation of human colorectal carcinoma HCT 116 and breast cancer MDA-MB-231 cells. As a result, compound 2 at concentrations of 0.6, 1.25, 2.5, and 5 µM decreased the number of colonies of HCT 116 cells by 11, 24, 52, and 97%, respectively (Figure 6a,b) and MDA-MB-231 cells by 20, 39, 61, and 80%, respectively (Figure 6c,d).\n(§4) HCT 116 and MDA-MB-231 cells (2.4 × 10^4/mL) were treated with compound 2 (0.6, 1.25, 2.5, and 5 µM). Then, the cells were placed onto 0.3% BME agar containing 10% FBS, 2 mM L-glutamine, and 25 µg/mL gentamicin. The cultures were maintained at 37 °C in a 5% CO2 incubator for 14 days. The number of colonies was counted under an AE 20 Motic microscope using the ImageJ v. 1.50i software, bundled with 64-bit Java 1.6.0_24 (NIH, Bethesda, MD, USA)."}, "[3]": {"test_system": "breast cancer MDA-MB-231 cells", "test": "cells", "type": "cell-based", "procedure": "(§5) We calculated the inhibiting concentration that cause death of 50% of cells (IC50) and the selectivity index (SI) of the compounds tested (Table 4).\n(§6) The human embryonic kidney HEK 293 cells (ATCC® CRL-1573™), breast cancer MDA-MB-231 cells (ATCC® HTB-26™), and colorectal carcinoma HCT 116 cells (ATCC® CCL-247™) were purchased from the American Type Culture Collection (Manassas, VA, USA). The HEK 293 and MDA-MB-231 cells were cultured in DMEM; the HCT 116 cells were cultured in the McCoy’s 5A medium at 37 °C in a humidified atmosphere containing 5% CO2. The culture media were supplemented with 10% heat-inactivated FBS and a 1% penicillin/streptomycin solution. The number of passages was carefully controlled, and contamination by Mycoplasma was monitored on a regular basis.\n(§7) Compounds 1–3, and 6–8 were dissolved in sterile dimethyl sulfoxide (DMSO), to prepare stock concentrations of 20 mM. Cells were treated with serially diluted 1–3, 6–8 (0.3–100 µM) (with the culture medium used as diluent) (the final concentration of DMSO was less than 0.5%). The vehicle control was the cells treated with an equivalent volume of DMSO (the final concentration was less than 0.5%) for all of the presented experiments.\n(§8) HEK 293 (1.0 × 10^4/200 µL), HCT 116 (1.0 × 10^4/200 µL), and MDA-MB-231 (0.8 × 10^4/200 µL) cells were seeded in a 96-well plate and incubated for 24 h at 37 °C in a CO2 incubator. […] The cells were subsequently incubated with 15 µL of the MTS reagent for 3 h. The absorbance of each well was measured at 490/630 nm on a Power Wave XS microplate reader (BioTek, Winooski, VT, USA).\n(§9) The IC50 concentration was calculated using the AAT-Bioquest® online calculator [24]. The selectivity index (SI) was calculated as described previously, using the following formula: SI = IC50 of the compounds for normal cells (HEK 293) divided by IC50 of the same compounds for the human colorectal adenocarcinoma and breast cancer (HCT 116 and MDA-MB-231) cell lines."}, "[4]": {"test_system": "human embryonic kidney HEK 293 cells", "test": "cells", "type": "cell-based", "procedure": "as §5, §6, §7, §8, §9"}, "[5]": {"test_system": "colorectal carcinoma HCT 116 cells", "test": "cells", "type": "cell-based", "procedure": "We determined the cytotoxicity of compounds 1–3 and 6–8 against human embryonic kidney HEK 293, colorectal carcinoma HCT 116, and breast cancer MDA-MB-231 cells by the MTS assay, after 24 h of treatment with the compounds. We calculated the inhibiting concentration that cause death of 50% of cells (IC50) and the selectivity index (SI) of the compounds tested (Table 4).\nas §6, §7, §8, §9"}, "[6]": {"test_system": "breast cancer MDA-MB-231 cells", "test": "Scratch (wound-healing) assay, MDA-MB-231", "type": "cell-based", "conditions": "Homo sapiens, 24 h of treatment, compared to control at 24 h, read-out: inhibition of migration of MDA-MB-231 cells", "excerpt": "as §1\nas §2, with “1.50i software, bundled with 64-bit Java 1.6.0_24 (NIH, Bethesda, MD, USA).” left out"}, "[7]": {"test_system": "breast cancer MDA-MB-231 cells", "test": "Soft-agar clonogenic assay, MDA-MB-231", "type": "cell-based, human", "conditions": "14 days", "procedure": "as §3, §4"}, "[8]": {"test_system": "AsPC-1 human pancreatic cancer cells", "set-up": "method as in PMID 18837899", "conditions": "by induction of apoptosis; cited from earlier work"}, "[9]": {"test_system": "MDA-MB-231 human breast cancer cells", "set-up": "method as in PMID 21741966", "conditions": "concentration- and time-dependent; cited from earlier work"}, "metastatic breast cancer": {"test_system": "metastatic breast cancer", "set-up": "method as in PMID 21761157", "conditions": "syngeneic murine model of metastatic breast cancer; cited from earlier work"}}, "data": [{"smiles": "CO[C@@H]1[C@@H](O)[C@H](O[C@@H]2[C@@H](O)[C@H](O[C@H]3[C@H](O)[C@@H](O)[C@H](O[C@H]4[C@H](O[C@H]5CC[C@]6(C)C7=C(CC[C@H]6C5(C)C)[C@]5(C)C[C@H](OC(C)=O)[C@H]([C@@](C)(O)CCC=C(C)C)[C@@]5(CO)CC7)OC[C@@H](O)[C@@H]4O)O[C@@H]3C)O[C@H](CO)[C@H]2O)OC[C@H]1O", "note": "[Compound 2, (20S)-3β-O-[3-O-methyl-β-D-xylopyranosyl-(1→3)-β-D-glucopyranosyl-(1→4)-β-D-quinovopyranosyl-(1→2)-β-D-xylopyranosyl]-16β-acetoxy,18,20-dihydroxy-5α-lanosta-8(9),24-diene]", "values": [{"measurement": "suppression of migration of HCT 116 cells", "setting": "[1]; 0.6 µM", "result": 8, "unit": "%"}, {"measurement": "reduction of migration of HCT 116 cells", "setting": "[1]; 0.6 µM", "result": 3, "unit": "%"}, {"measurement": "suppression of migration of HCT 116 cells", "setting": "[1]; 1.25 µM", "result": 18, "unit": "%"}, {"measurement": "reduction of migration of HCT 116 cells", "setting": "[1]; 1.25 µM", "result": 3, "unit": "%"}, {"measurement": "suppression of migration of HCT 116 cells", "setting": "[1]; 2.5 µM", "result": 42, "unit": "%"}, {"measurement": "reduction of migration of HCT 116 cells", "setting": "[1]; 2.5 µM", "result": 23, "unit": "%"}, {"measurement": "suppression of migration of HCT 116 cells", "setting": "[1]; 5 µM", "result": 41, "unit": "%"}, {"measurement": "reduction of migration of HCT 116 cells", "setting": "[1]; 5 µM", "result": 41, "unit": "%"}, {"measurement": "inhibition at 0.6 µM", "setting": "[1]; Homo sapiens, HCT-116, 0.6 µM, 24 h of treatment, compared to control 24 h, read-out: inhibition of migration of HCT 116 cells", "result": 5, "unit": "%"}, {"measurement": "inhibition at 1.25 µM", "setting": "[1]; Homo sapiens, HCT-116, 1.25 µM, 24 h of treatment, compared to control 24 h, read-out: inhibition of migration of HCT 116 cells", "result": 17, "unit": "%"}, {"measurement": "inhibition at 2.5 µM", "setting": "[1]; Homo sapiens, HCT-116, 2.5 µM, 24 h of treatment, compared to control 24 h, read-out: inhibition of migration of HCT 116 cells", "result": 30, "unit": "%"}, {"measurement": "inhibition at 5 µM", "setting": "[1]; Homo sapiens, HCT-116, 5 µM, 24 h of treatment, compared to control 24 h, read-out: inhibition of migration of HCT 116 cells", "result": 37, "unit": "%"}, {"measurement": "decrease of the number of colonies, HCT 116", "setting": "[2]; 0.6 µM", "result": 11, "unit": "%"}, {"measurement": "decrease of the number of colonies, HCT 116", "setting": "[2]; 1.25 µM", "result": 24, "unit": "%"}, {"measurement": "decrease of the number of colonies, HCT 116", "setting": "[2]; 2.5 µM", "result": 52, "unit": "%"}, {"measurement": "decrease of the number of colonies, HCT 116", "setting": "[2]; 5 µM", "result": 97, "unit": "%"}, {"measurement": "cytotoxic activity in words, MDA-MB-231", "setting": "[3]", "result": "Moderate"}, {"measurement": "IC50", "setting": "[3]; Homo sapiens, MDA-MB-231, MTS assay, 24 h of cell incubation, mean ± SD, read-out: IC50, MDA-MB-231", "result": "15.5 ± 1.6", "unit": "µM"}, {"measurement": "SI (selectivity index), MDA-MB-231", "setting": "[3]; mean IC50 against normal cells (HEK 293)/mean IC50 against MDA-MB-231, 24 h", "result": 1.2}, {"measurement": "cytotoxic activity in words, HEK 293", "setting": "[4]", "result": "Moderate"}, {"measurement": "IC50", "setting": "[4]; Homo sapiens, HEK293, MTS assay, 24 h of cell incubation, mean ± SD, read-out: IC50, HEK 293", "result": "18.5 ± 2.5", "unit": "µM"}, {"measurement": "cytotoxic activity in words, HCT 116", "setting": "[5]", "result": "Moderate"}, {"measurement": "IC50", "setting": "[5]; Homo sapiens, HCT-116, MTS assay, 24 h of cell incubation, mean ± SD, read-out: IC50, HCT 116", "result": "18.6 ± 1.4", "unit": "µM"}, {"measurement": "SI (selectivity index), HCT 116", "setting": "[5]; mean IC50 against normal cells (HEK 293)/mean IC50 against HCT 116, 24 h", "result": 1}, {"measurement": "inhibition at 5 µM", "setting": "[6]", "result": 15, "unit": "%"}, {"measurement": "decrease of the number of colonies, MDA-MB-231", "setting": "[7]; 0.6 µM", "result": 20, "unit": "%"}, {"measurement": "decrease of the number of colonies, MDA-MB-231", "setting": "[7]; 1.25 µM", "result": 39, "unit": "%"}, {"measurement": "decrease of the number of colonies, MDA-MB-231", "setting": "[7]; 2.5 µM", "result": 61, "unit": "%"}, {"measurement": "decrease of the number of colonies, MDA-MB-231", "setting": "[7]; 5 µM", "result": 80, "unit": "%"}]}, {"smiles": "CO[C@@H]1[C@@H](O)[C@H](O[C@@H]2[C@@H](O)[C@H](O[C@H]3[C@H](O)[C@@H](O[C@@H]4OC[C@@H](O)[C@H](O)[C@H]4O)[C@H](O[C@H]4[C@H](OC5CC[C@]6(C)[C@H]7CCC89C(=O)O[C@@](C)(CCCC(C)C)C8[C@@H](OC(C)=O)C[C@@]9(C)C7=CC[C@H]6C5(C)C)OC[C@@H](OS(=O)(=O)O)[C@@H]4O)O[C@@H]3C)OC[C@H]2O)O[C@H](CO)[C@H]1O", "note": "(some centres unmarked) [frondoside A]", "values": [{"measurement": "proliferation of AsPC-1 cells", "setting": "[8]", "result": "inhibits proliferation"}, {"measurement": "viability of MDA-MB-231 cells", "setting": "[9]", "result": "decreases the viability"}, {"measurement": "antimetastatic effect", "setting": "metastatic breast cancer", "result": "potent antimetastatic effect"}]}]}
